Data reported in ChEMBL document CHEMBL1201862, “PubChem BioAssay data set” (2004).
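Following 48 hours of exposure in 96-well plates, responses at five concentrations were used to interpolate endpoints linearly. Abbreviation: GI50, concentration required for 50% inhibition of growth.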 Calls of active or inactive are those of the source. No stated cut-off is given here; in the data, active = GI50 up to about 1.1 µM and inactive = higher.

How the values were obtained:
Test in all cases: NCI tumour cell line growth inhibition, 48 h
SK-MEL-5 = tested on: SK-MEL-5
DU-145 = tested on: DU-145
HT-29 = tested on: HT-29
RXF 393 = tested on: RXF 393
SF-268 = tested on: SF-268
NCI-H226 = tested on: NCI-H226
M14 = tested on: M14
SK-MEL-2 = tested on: SK-MEL-2
MOLT-4 = tested on: MOLT-4
CAKI-1 = tested on: CAKI-1
KM12 = tested on: KM12
Hs-578T = tested on: Hs-578T
UACC-257 = tested on: UACC-257
IGROV-1 = tested on: IGROV-1
EKVX = tested on: EKVX
TK-10 = tested on: TK-10
SK-OV-3 = tested on: SK-OV-3
HL-60 = tested on: HL-60
SF-539 = tested on: SF-539
A498 = tested on: A498

Measured: GI50

N=C(N)SCc1nc(-c2ccc(Cl)cc2)no1
inactive: SK-MEL-5 31.1 µM | DU-145 15.7 µM | HT-29 10.2 µM | RXF 393 12.1 µM | SF-268 19.3 µM | NCI-H226 > 100 µM | M14 16.8 µM | SK-MEL-2 13.2 µM | MOLT-4 3.56 µM | CAKI-1 14 µM | KM12 20.8 µM | Hs-578T 42 µM | UACC-257 30.5 µM | IGROV-1 32.7 µM | EKVX 18.5 µM | TK-10 20.6 µM | SK-OV-3 26.9 µM | HL-60 13.8 µM | SF-539 15.8 µM | A498 16.8 µM

CC1(c2ccc(Cl)cc2)C=C(c2ccc(Cl)cc2)C(C#N)=C(C(C#N)C#N)N1.CNC (stereo not given)
inactive: SK-MEL-5 14.2 µM | DU-145 16.1 µM | HT-29 16.6 µM | RXF 393 18.7 µM | SF-268 10.7 µM | NCI-H226 19.8 µM | M14 18.6 µM | SK-MEL-2 19.5 µM | MOLT-4 13.6 µM | CAKI-1 16.9 µM | KM12 17.3 µM | Hs-578T 9.82 µM | UACC-257 17.5 µM | IGROV-1 12.9 µM | EKVX 16.6 µM | TK-10 18.7 µM | SK-OV-3 17.1 µM | HL-60 13.1 µM | SF-539 19.5 µM | A498 17.9 µM

CO[C@@H](c1ccccc1)[C@H](O)[C@](O)(c1ccccc1)P(=O)(OC)OC
inactive: SK-MEL-5 > 100 µM | DU-145 > 100 µM | HT-29 > 100 µM | RXF 393 > 100 µM | SF-268 > 100 µM | NCI-H226 > 100 µM | M14 > 100 µM | SK-MEL-2 > 100 µM | MOLT-4 > 100 µM | CAKI-1 > 100 µM | KM12 > 100 µM | Hs-578T > 100 µM | UACC-257 > 100 µM | IGROV-1 > 100 µM | EKVX > 100 µM | TK-10 > 100 µM | SK-OV-3 > 100 µM | HL-60 > 100 µM | SF-539 > 100 µM | A498 > 100 µM

O=C(NP(=O)(N1CC1)N1CC1)c1cc(I)ccc1I [DIIODBENZOTEPH]
inactive: SK-MEL-5 43.1 µM | DU-145 15.6 µM | HT-29 62.7 µM | RXF 393 34.6 µM | SF-268 27.3 µM | NCI-H226 46.1 µM | M14 34.8 µM | SK-MEL-2 61 µM | MOLT-4 5.58 µM | CAKI-1 > 22.3 µM | KM12 > 91.2 µM | Hs-578T 98.9 µM | UACC-257 > 64.3 µM | IGROV-1 40.6 µM | EKVX 78 µM | TK-10 > 100 µM | SK-OV-3 25.6 µM | HL-60 5.06 µM | SF-539 23.9 µM | A498 64.4 µM
